# Test results: patent publication US20240226225A1 (Protagonist Therapeutics, Inc., priority 2021, published 2024)
# Tests used:
# ferroportin [1] = target: T1, ferroportin (Homo sapiens, UniProt Q9NP59); experiment: FPN activity assay: internalization/degradation of ferroportin-GFP in stably transfected HEK293 cells, decrease in GFP fluorescence; type: cell-based; parameters: expressed in transfected cells; details: HEK293 cells stably expressing ferroportin-GFP, at least 18 hours incubation; read-out: FPN EC50
# T1 sequence (Q9NP59 1-571): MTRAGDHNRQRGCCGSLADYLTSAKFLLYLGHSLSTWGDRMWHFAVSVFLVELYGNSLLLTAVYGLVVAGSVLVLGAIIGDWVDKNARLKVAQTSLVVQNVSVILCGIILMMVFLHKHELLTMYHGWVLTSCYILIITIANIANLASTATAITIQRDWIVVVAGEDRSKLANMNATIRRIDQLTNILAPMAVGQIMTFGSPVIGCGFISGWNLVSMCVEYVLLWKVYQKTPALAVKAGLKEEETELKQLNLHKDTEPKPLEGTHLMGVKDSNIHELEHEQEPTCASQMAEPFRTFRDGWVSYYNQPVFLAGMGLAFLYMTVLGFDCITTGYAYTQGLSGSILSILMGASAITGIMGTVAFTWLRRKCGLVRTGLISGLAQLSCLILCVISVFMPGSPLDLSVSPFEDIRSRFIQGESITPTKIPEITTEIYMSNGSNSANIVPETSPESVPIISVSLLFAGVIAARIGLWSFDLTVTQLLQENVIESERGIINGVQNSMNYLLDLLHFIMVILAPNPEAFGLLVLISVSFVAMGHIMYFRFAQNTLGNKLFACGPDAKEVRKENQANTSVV
# ferroportin [2] = target: T1, ferroportin; experiment: T47D cell-based ferroportin internalization assay in presence of 0.5% mouse serum albumin (MSA), AF647-conjugated detection peptide, flow cytometry; parameters: a human breast carcinoma adherent cell line which endogenously expresses ferroportin; host or cells: T47D; details: T47D cells, 1 hr incubation
# Protocol: The potency of the peptides in causing ferroportin internalization was evaluated in a T47D cell-based assay. […] In this internalization assay, the potency of the test peptides was evaluated in presence of serum albumin which is the main protein component in the blood. T47D cells were maintained in RPMI media (containing required amount of fetal bovine serum) and regularly sub-cultured. In preparation for the assay, the cells were seeded in 96-well plates at a density of 80-100 k cells per well in 100 ul volume and allowed to rest overnight. On the next day, test peptides were first prepared in dilution series (10-point series, starting concentration of ˜5 μM, typically 3-4×fold dilution steps), all with 0.5% mouse serum albumin (MSA purified from mouse serum; Sigma, A3139). The test peptide dilution series were allowed to incubate at room temperature for 30 min. Then the media was aspirated from the 96-well cell plate and test peptide dilution series were added. After 1 hr incubation, the media with test peptides was aspirated out and AF647-conjugated detection peptide was added at fixed concentration of 200 nM. The AF647-conjugated detection peptide was previously verified to bind to ferroportin and cause its internalization. The cells were washed again after a 2 hr incubation in preparation for flow cytometry analysis. The Median Fluorescence Intensity (MFI) of the AF647-positive population was measured (after removing dead cells and non-singlets from the analysis). The MFI values were used to generate a dose-response curve and obtain IC50 potencies for the test peptides. The IC50 potencies were calculated by using 4-parameter non-linear fitting function in Graphpad Prism (Table 2A).
# [3] = test system: ferroportin fused to green fluorescent protein; details: read-out: EC50 (50% of the maximal loss of fluorescence); cells incubated for 24 hours with graded concentrations; cited from earlier work
# [4] = target: human ferroportin (SLC40A1) fused in frame with GFP, stably expressed in HEK293 cells (human) (UniProt Q9NP59); experiment: cell-based or functional assay
molecule,measurement,setting,value
"CC[C@H](C)[C@@H]1NC(=O)[C@@H](NC(=O)[C@@H]2CCCN2C(=O)[C@@H](NC(=O)[C@H](Cc2cnc[nH]2)NC(=O)[C@@H](NC(=O)[C@H](CC2N=NN=N2)NC(=O)CC(C)C)[C@@H](C)O)C(c2ccccc2)c2ccccc2)CSSC[C@@H](C(N)=O)NC(=O)[C@@H](CCCCN)NC(=O)C[C@H](Cc2ccccc2)NC(=O)[C@H](CCCCNC(=O)COCCOCCNC(=O)COCCOCCNC(=O)[C@H](CN)NC(=O)CCCCCCCCCCCCCCCCC(=O)O)NC1=O [Compd 53, Isovaleric_Acid-[Tet1]-T-H-[Dpa]-P-[Cys]-I-[Lys(1PEG2_1PEG2_Dap_C18_Diacid)]-[bhphe]-[(D)Lys]-[Cys]-NH2]",DC50,ferroportin [1],10 to 100 nM
same,IC50,ferroportin [2],10 to 100 nM
Hy-DTHFPIC(1)IFC(2)C(3)GC(2)C(4)HRSKC(3)GMC(4)C(1)KT-OH [Hepcidin],EC50,[3],5 to 15 nM
"Mini-Hepcidin 1-9, Hy-…-NH2 (peptide)","Potency EC50 (nM), FPN activity assay (ferroportin-GFP internalization/degradation, HEK293 cells)",[4],712 nM
"RI-Mini Hepcidin, Hy-DPhe-DIle-DCys-DIle-DPro-DPhe-DHis-DThr-DAsp-NH2 (peptide)","Potency EC50 (nM), FPN activity assay (ferroportin-GFP internalization/degradation, HEK293 cells)",[4],> 10000 nM
